Source: patent publication US20260242390A1, “TOTAL SYNTHESES OF PORTIMINE A AND ANALOGUES THEREOF AS SMALL MOLECULE MODULATORS OF NMD3” (priority 2023, published 2026)

Experiments:
Jurkat cells = assay: Initial SAR: activity of PAL functionalized PTMA analogs; type: cell-based, human; conditions: in the concentrate range
Description: FIG. 3. Initial SAR studies: Assessing activity of PAL functionalized PTMA analogs. […] (A) PA and Ph-PA show less toxic to healthy PBMCs compared to Jurkat cells. […] (B) Immunoblot of caspase-3 in Jurkat and PBMCs with indicated conditions.
• 1) Portimine A and its functional analogs show stereo-selective acute toxicity in cancer cells (FIG. 1). […] (B) Structure of portimine related analogs: phenyl-portimine A (Ph-PA, 36) and epi-portimine A (ePA, 38). Structure of fully functionalized portimine A-based epimeric probe pair: portimine A-diazirine-alkyne (PA-DA, 35-2) and epi-portimine A-diazirine-alkyne (ePA-DA, 35-1). (C) Cell viability analysis of portimine A and analogs. Jurkat cells were treated with increasing concentrations of portimine A and analogs for 24 hours. All presented data as mean of biological replicated experiments (n=3). […] Jurkat cells were treated with portimine A or analogs for 12 hours at 10 nM. […] Structurally related negative control ePA and PB are non-toxic in all cell types in the current concentrate range. PBMCs (25k per well), Jurkat (10k per well). […] Cell cycle analysis in Jurkat cells (FIG. 2). Jurkat cells were treated with 10 nM of indicated compounds for 24 hours, and propodium iodide was used to identify different stages of cells by flow cytometry. […] (A) PA and Ph-PA show less toxic to healthy PBMCs compared to Jurkat cells. […] (B) Immunoblot of caspase-3 in Jurkat and PBMCs with indicated conditions. […] (A) Pharmacokinetic studies of mouse intraperitoneal (i.p.) and oral (p.o.) administration for portimine (n=3). […] Impact of PA [0.3 or 1 mg/kg intraperitoneally] on MC38 tumor growth in WT mice (n=6). (C) Kaplan-Myer survival curve of WT MC38 tumor-bearing mice (n=6) after treatment with PA as described in (D). Mice were euthanized when tumor area exceeded 2000 mm^3. Statistical analysis was performed using ANOVA analysis followed by multiple comparisons test, * p≤0.05. Treatment condition: Jurkat (60 M per condition); PA-DA/ePA-DA concentration: 0.5 uM, PA or ePA: 5 uM; Incubate with probe with or without competitors (PA, ePA) for 30 min; UV irradiated for 20 min. (0.5 uM PA-DA add a no-UV condition), Standard pulldown & biotin-enrichment and western blot analysis (Elute condition: 2× sample buffer+500 uM biotin, boil for 20 mins); Primary antibody NMD3 (ProteinTech, 1:150), Actin (BioRad, 1:10000). […] Cell lysates were fractionated by sucrose gradient (5-50%) and each fraction were analyzed by western blot. eIF6 levels increase in 60S subunit fraction and decrease in ribosome-free fractions after PA treatment. […]

[1] = test system: human T-cell acute lymphoblastic leukaemia (T-ALL) cell lines; conditions: cited from earlier work
[2] = test system: normal murine haematopoietic cells; conditions: cited from earlier work

CC(=O)O[C@@H]1CC(C)[C@@H]2CC[C@@]3(C[C@@H](O)C4=NCC[C@@]45CCC(c4ccc(C(=O)NCCC6(CCC#N)N=N6)cc4)=C[C@@H]5[C@H](O3)C1=O)O2 (stereo partly drawn) [epi-PTMA-Ac-DA]
activity of PAL functionalized PTMA analogs (Jurkat cells): no activity

O=C(/C=C\n1cnc(-c2cc(C(F)(F)F)cc(C(F)(F)F)c2)n1)NNc1cnccn1 [KPT-330]
apoptosis in a panel of 14 human T-ALL cell lines [1]: induced rapid apoptosis at low nanomolar concentrations
toxicity to normal murine haematopoietic cells [2]: little toxicity
